Experimental data published in patent US4041022A, “Process for the manufacture of thyrocalcitonin” (Ciba-Geigy Corporation, priority 1967, dated 1977).
Positions of bridges follow the written chain, without caps; N, C: chain ends. Non-standard residues stand in square brackets, D forms with d. Residues, ends and D or L forms follow the SMILES beside them. Met(O) = CS(=O)CC[C@H](N)C(=O)O

Key:
[1] = stability towards mild oxidation with performic acid; assay type: physicochemical
Experimental: b. 80 g of Bio-gel P6 are allowed to swell overnight in 0.1N-formic acid, then filled into a chromatography tube (internal diameter 2.5 cm) up to a height of 94 cm (when it has settled; total volume of the gel bed, 460 ml). 600 mg of the crude product obtained as described under (a) above are dissolved in 20 ml of 0.1N-formic acid, the solution poured on to the gel column, and eluted with 0.1N-formic acid. The eluate is passed through a recording UV percolation photometer (254 nm) and collected in fractions of 15 ml each. The eluates are analyzed by thin-layer chromatography over Sephadex G 25 (superfine) (registered Trade Mark) in 0.1N-formic acid (with chlorine/tolidine reagent), and tested biologically. The maximum activity is found in an eluate volume corresponding to 0.8 column volume. The fractions are lyophilized individually and yield 70% of the total activity; the best fractions have an activity of 40 MRC units/mg. The molecular weight of these active substances is below 5000. The product can be further purified by counter-current distribution and/or gel chromatography. For this purpose, batches of 2-5 g of the enriched material are subjected to counter-current distribution over 250-300 stages in the system n-butanol:methanol:0.1N-acetic acid (4:1:5). […]

[2] = solubility; assay type: physicochemical; conditions: for solubility of the acetate: acetate of the peptide; for solubility of the trichloracetate: trichloracetate of the peptide

SMILES	stability towards mild oxidation with performic acid [1]	solubility of the acetate [2]	solubility of the trichloracetate [2]
CC(C)C[C@H](NC(=O)[C@H](CC(N)=O)NC(=O)[C@H](CCCNC(=N)N)NC(=O)[C@H](Cc1c[nH]c2ccccc12)NC(=O)[C@H](Cc1ccc(O)cc1)NC(=O)[C@H](C)NC(=O)[C@H](CO)NC(=O)[C@H](CC(C)C)NC(=O)[C@@H](NC(=O)[C@@H]1CSSC[C@H](N)C(=O)N[C@@H](CO)C(=O)N[C@@H](CC(N)=O)C(=O)N[C@@H](CC(C)C)C(=O)N[C@@H](CO)C(=O)N[C@@H]([C@@H](C)O)C(=O)N1)C(C)C)C(=O)N[C@@H](CC(N)=O)C(=O)N[C@@H](CC(N)=O)C(=O)N[C@@H](Cc1ccccc1)C(=O)N[C@@H](Cc1c[nH]cn1)C(=O)N[C@@H](CCCNC(=N)N)C(=O)N[C@@H](Cc1ccccc1)C(=O)N[C@@H](CO)C(=O)NCC(=O)N[C@@H](CC[S+](C)[O-])C(=O)NCC(=O)N[C@@H](Cc1ccccc1)C(=O)NCC(=O)N1CCC[C@H]1C(=O)N[C@@H](CCC(=O)O)C(=O)N[C@H](C(=O)N1CCC[C@H]1C(N)=O)[C@@H](C)O (stereo partly drawn) [β-thyrocalcitonin] (H-CSNLSTCVLSAYWRNLNNFHRFSG[Met(O)]GFGPETP-NH2; disulfide 1-7)	stable	readily soluble	rather sparingly soluble
CSCC[C@H](NC(=O)CNC(=O)[C@H](CO)NC(=O)[C@H](Cc1ccccc1)NC(=O)[C@H](CCCNC(=N)N)NC(=O)[C@H](Cc1c[nH]cn1)NC(=O)[C@H](Cc1ccccc1)NC(=O)[C@H](CC(N)=O)NC(=O)[C@H](CC(N)=O)NC(=O)[C@H](CC(C)C)NC(=O)[C@H](CC(N)=O)NC(=O)[C@H](CCCNC(=N)N)NC(=O)[C@H](Cc1c[nH]c2ccccc12)NC(=O)[C@H](Cc1ccc(O)cc1)NC(=O)[C@H](C)NC(=O)[C@H](CO)NC(=O)[C@H](CC(C)C)NC(=O)[C@@H](NC(=O)[C@@H]1CSSC[C@H](N)C(=O)N[C@@H](CO)C(=O)N[C@@H](CC(N)=O)C(=O)N[C@@H](CC(C)C)C(=O)N[C@@H](CO)C(=O)N[C@@H]([C@@H](C)O)C(=O)N1)C(C)C)C(=O)NCC(=O)N[C@@H](Cc1ccccc1)C(=O)NCC(=O)N1CCC[C@H]1C(=O)N[C@@H](CCC(=O)O)C(=O)N[C@H](C(=O)N1CCC[C@H]1C(N)=O)[C@@H](C)O [α-thyrocalcitonin] (H-CSNLSTCVLSAYWRNLNNFHRFSGMGFGPETP-NH2; disulfide 1-7)	becomes a more polar product	readily soluble	rather sparingly soluble
